Results on 4 compounds are retold here after patent US8486943B2, “Tetrahydrocyclopenta[b]indole androgen receptor modulators” (Eli Lilly and Company, priority 2008, dated 2013).

Each structure is given as a SMILES string. Like-named read-outs stand apart in the source and are kept apart here.

The target in experiment [1] is T1, human androgen receptor (AR) (Homo sapiens, UniProt P10275).
T1 construct: expressed in transfected cells; host or cells: mouse myoblast C2C12 cells, transient co-transfection with Fugene
T1 sequence (P10275 1-920): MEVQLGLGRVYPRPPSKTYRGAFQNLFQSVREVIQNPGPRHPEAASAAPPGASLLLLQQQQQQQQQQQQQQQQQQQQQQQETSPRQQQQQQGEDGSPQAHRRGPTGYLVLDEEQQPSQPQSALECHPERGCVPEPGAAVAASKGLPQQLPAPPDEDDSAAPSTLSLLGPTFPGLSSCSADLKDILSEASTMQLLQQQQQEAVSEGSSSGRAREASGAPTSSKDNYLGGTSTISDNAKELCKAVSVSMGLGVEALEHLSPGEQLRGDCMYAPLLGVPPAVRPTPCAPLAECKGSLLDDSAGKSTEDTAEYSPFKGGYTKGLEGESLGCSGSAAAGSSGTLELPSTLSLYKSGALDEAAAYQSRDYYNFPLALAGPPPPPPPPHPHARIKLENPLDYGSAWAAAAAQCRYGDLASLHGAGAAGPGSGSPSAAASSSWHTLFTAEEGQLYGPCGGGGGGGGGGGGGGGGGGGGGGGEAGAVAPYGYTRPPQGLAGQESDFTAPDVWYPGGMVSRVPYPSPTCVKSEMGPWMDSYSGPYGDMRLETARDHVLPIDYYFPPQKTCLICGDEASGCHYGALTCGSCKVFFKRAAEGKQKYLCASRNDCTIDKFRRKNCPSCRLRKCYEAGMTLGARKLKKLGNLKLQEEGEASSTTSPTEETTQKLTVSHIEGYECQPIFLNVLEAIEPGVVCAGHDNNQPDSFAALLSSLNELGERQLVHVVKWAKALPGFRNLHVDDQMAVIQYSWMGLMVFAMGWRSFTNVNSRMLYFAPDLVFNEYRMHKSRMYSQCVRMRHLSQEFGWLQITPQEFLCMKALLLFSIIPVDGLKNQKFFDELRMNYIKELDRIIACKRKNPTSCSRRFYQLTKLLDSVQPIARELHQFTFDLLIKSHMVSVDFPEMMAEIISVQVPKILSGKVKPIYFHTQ
In words: C2C12 AR/ARE reporter assay. It counts as cell-based. As for the experimental part:
As an indicator of agonist activity in muscle tissue, the C2C12 AR/ARE reporter assay is performed. Briefly, mouse myoblast C2C12 cells are co-transfected using Fugene™ reagent. A reporter plasmid containing a GRE/ARE (glucocorticoid response element/androgen response element) and TK promoter upstream of the luciferase reporter cDNA, is transfected with a plasmid constitutively expressing human androgen receptor (AR) using viral CMV promoter. Cells are transfected in T150 cm^2 flasks in DMEM media with 4% charcoal stripped Fetal Bovine Serum (FBS). After a 5 hour incubation, transfected cells are trypsinized, plated in 96 well dishes in DMEM media containing 4% charcoal-stripped FBS, incubated for 2 h and then exposed to various concentrations of test compounds ranging from about 0.01 nM to 10 μM. After 48 h of incubations with compounds, cells are lysed and luciferase activity is determined by standard techniques. Data is fit to a 4 parameter-fit logistics to determine EC50 values. The % efficacy is determined versus maximum stimulation obtained with 10 nM methyltrienolone.
A general note: In a reporter assay the amount or activity of a reporter protein is the signal.

Experiment [2] has as its target T2, human AR (androgen receptor) (Homo sapiens, UniProt P10275).
T2 construct: expressed in transfected cells; host or cells: HEK293 cells (lysate, '293-AR lysate')
T2 sequence (P10275 1-920): T1 sequence (P10275 1-920)
Put plainly: Steroid hormone nuclear receptor binding assay (AR binding). How it is done: Cell lysates from human embryonic kidney HEK293 cells overexpressing human MR (mineralocorticoid receptor), GR (glucocorticoid receptor), AR (androgen receptor), or PR (progesterone receptor) are used for receptor-ligand competition binding assays to determine Ki values. Typical procedures are provided below
Briefly, steroid receptor competition binding assays are run in a buffer containing 20 mM HEPES buffer (pH=7.6), 0.2 mM EDTA, 75 mM NaCl, 1.5 mM MgCl2, 20% glycerol, 20 mM sodium molybdate, 0.2 mM DTT (dithiothreitol), 20 μg/mL aprotinin and 20 μg/mL leupeptin (assay buffer). […] Assays are typically run in 96-well format. Competing test compounds are added at various concentrations ranging from about 0.01 nM to 10 μM. Non-specific binding is determined in the presence of 500 nM aldosterone for MR binding, 500 nM dexamethasone for GR binding, or 500 nM methyltrienolone for AR and PR binding. […] Plates are mixed for 8 minutes on an orbital shaker at 4° C. The plates are then centrifuged at 3,000 rpm at 4° C. for 10 minutes. An aliquot of 120 μL of the binding reaction mixture is then transferred to another 96-well plate and 175 μL of Wallac Optiphase Hisafe 3™ scintillation fluid is added to each well. Plates are sealed and shaken vigorously on an orbital shaker. After an incubation of 2 hours, plates are read in a Wallac Microbeta counter.
The Kd for [^3H]-aldosterone for MR binding, [^3H]-dexamethasone for GR binding, [^3H]-methyltrienolone for AR binding, or [^3H]-methyltrienolone for PR binding, is determined by saturation binding. The IC50 values for compounds are converted to Ki using the Cheng-Prusoff equation.

For experiment [3], the system named is castrated (GDX) male Sprague Dawley rats. In words: Model of Efficacy and Selectivity (castrated rats, tissue wet weights). Type of experiment: in vivo, rat. The note with it: eight week treatment; for mean LA wet weight / mean bulbocavernous wet weight / mean prostate wet weight: oral daily. How it is done: Male Sprague Dawley rats (24 weeks old) are castrated (gonadectomized or “GDX”) according to approved procedures and allowed to waste for eight weeks. Age-matched sham-operated […] are also prepared Animals are housed in a temperature-controlled room (24° C.) with a reversed 12 hour light/dark cycle and water and food are available ad libitum.
Animals are randomized based on body weight prior to ascribing a test slot. Compounds of the present invention are administered daily by oral gavage to the castrated thirty two week old rats (body weight about 450-500 g) using a conventional vehicle such as 1% sodium carboxymethylcellulose (CMC)+0.25% Tween 80+0.05% AntiFoam® in sterile H2O. Sham operated rats treated with vehicle alone are used as a treatment positive controls whereas castrated rats treated only with vehicle are used as treatment negative control.
Test animals are dosed daily over a two or eight week timeframe with, for example, 0.3, 1, 2, 3, or 6 mg/kg/day of a compound of the present invention. After the treatment period, animals are sacrificed and the wet weight of the Levator Ani (LA) muscle and the bulbocavernous muscle in each test group may determined and compared to the wet weight of the Levator Ani and the bulbocavernous muscle from the castrated, vehicle-only control group (after weighing, the bulbocavernous muscle may be flash frozen in liquid nitrogen for later use in measuring nitric oxide synthase mRNA, as described below) As an indicator of tissue selective activity, the wet weight of the prostate from test animals may be similarly compared to the wet weight of the prostate from the castrated, vehicle-only group.

For experiment [4], the system named is penile nitric oxide synthase (pnNOS) mRNA. Put plainly: pnNOS mRNA by real-time quantitative PCR in bulbocavernosum tissue of treated castrated rats. It counts as in vivo, rat. The note with it: eight weeks. As for the experimental part:
(§1) RNA is isolated from frozen bulbous and corpus cavernosum tissues that are obtained at necropsy from castrated Sprague Dawley rats that are prepared and dosed essentially as described above for the Model of Efficacy and Selectivity. cDNA is synthesized from 2 μg of RNA using a high capacity cDNA kit according to the manufacturer's instructions.
(§2) Real-time quantitative PCR is then performed according to the fluorescent TaqMan® methodology (Applied Biosystems). Assays-on-Demand™ (Applied Biosystems) probes are used for the rat […] nitric oxide synthase transcript (eNOS) while probes are designed for the rat penile specific isoform of neuronal nitric oxide synthase (pnNOS) using probe designer software (Applied Biosystems). The probes are designed to span a 102 bp region of the rat neuronal nitric oxide synthase gene (pnNOS) that is specific to pnNOS (positions 2865-2967). MGB™ Primer sequences are 5′CCGGAACCCTTGCGTTT 3′ (SEQ ID NO:1) (forward) and 5′[…] 3′ (SEQ ID NO:2) (reverse) and the probe sequence is 5′CCCGTAAAGGGCCT 3′ (SEQ ID NO:3) (FAM NFQ). Assays-on-Demand™ probe sets for the PPIB transcript are used as an internal control. PCR is performed on an ABI Prism 7700 Sequence Detection System at the following thermocycler conditions: 2 min. at 50° C., 10 min. at 95° C., and 40 cycles at 95° C. for 30 s, and 60° C. for 1 min. All reactions are carried out in triplicate.

Experiment [5] concerns epithelial nitric oxide synthase (eNOS) mRNA. Put plainly: eNOS mRNA by real-time quantitative PCR in corpus cavernosum tissue of treated castrated rats. It counts as in vivo, rat. The note with it: 2 mg/kg/day, two weeks. As for the experimental part:
as §1, §2

`CC(C)OC(=O)N[C@H]1Cc2c(n(C[C@@H]3N(C)CC[C@@]3(C)O)c3ccc(C#N)cc23)C1` (relative stereo) [Example 6, [(S)-7-Cyano-4-(trans-3-hydroxy-1-methyl-3-methyl-pyrrolidin-2-ylmethyl)-1,2,3,4-tetrahydro-cyclopenta[b]indol-2-yl]-carbamic acid isopropyl ester]: in experiment [1] (mouse myoblast C2C12 cells transfected with human AR, no unit printed for these values, read-out: EC50 in the C2C12 AR/ARE reporter assay), the EC50 is about 0.3 nM.
`CC(C)OC(=O)N[C@H]1Cc2c(n(C[C@H]3NCC[C@@H]3O)c3ccc(C#N)cc23)C1` [Example 1, [(S)-7-Cyano-4-((2R,3S)-3-hydroxy-pyrrolidin-2-ylmethyl)-1,2,3,4-tetrahydrocyclopenta[b]indol-2-yl]-carbamic acid isopropyl ester] showed a Ki in experiment [2] of about 51 nM. In addition, the EC50 in experiment [1] is about 20 nM.
Regarding `CC(C)OC(=O)N[C@H]1Cc2c(n(C[C@@H]3[C@@H](O)CCN3C)c3ccc(C#N)cc23)C1` [Example 2, [(S)-7-Cyano-4-((2R,3S)-3-hydroxy-1-methyl-pyrrolidin-2-ylmethyl)-1,2,3,4-tetrahydrocyclopenta[b]indol-2-yl]-carbamic acid isopropyl ester], the inhibition constant Ki in experiment [2] is about 11 nM. Moreover, the EC50 in experiment [1] is about 1 nM. Also, the “mean LA wet weight” value in experiment [3] (0.3 mg/kg) is listed as “about 0.137 g”; in experiment [3] (1.0 mg/kg), “about 0.182 g”; in experiment [3] (3.0 mg/kg), “about 0.205 g”; in experiment [3] (6.0 mg/kg) it was “about 0.264 g”. Also, the “mean bulbocavernous wet weight” value is “about 0.476 g” in experiment [3] (0.3 mg/kg), “about 0.582 g” in experiment [3] (1.0 mg/kg), “about 0.698 g” in experiment [3] (3.0 mg/kg) and “about 0.955 g” in experiment [3] (6.0 mg/kg). Moreover, the “mean prostate wet weight” value was “about 72.4 mg” in experiment [3] (0.3 mg/kg), “about 102.8 mg” in experiment [3] (1.0 mg/kg), “about 147.4 mg” in experiment [3] (3.0 mg/kg) and “about 271.8 mg” in experiment [3] (6.0 mg/kg). Moreover, in experiment [3] (0.3-6.0 mg/kg), the “Levator ani weight in comparison to the castrated control group” value is “dose dependent increase”. Moreover, the “bulbocavernous weight in comparison to the castrated control group” value in experiment [3] (0.3-6.0 mg/kg) is recorded as “dose dependent increase”. The pnNOS expression entry is recorded as “about 97 % of control” in experiment [4] (0.3 mg/kg), “about 93 % of control” in experiment [4] (1.0 mg/kg), “about 153 % of control” in experiment [4] (3.0 mg/kg) and “about 248 % of control” in experiment [4] (6.0 mg/kg). Also, the “penile nitric oxide synthase (pnNOS) mRNA” value in experiment [4] (0.3-6.0 mg/kg) was “dose dependent increase”. Besides, in experiment [5], the eNOS expression entry was “about 159 % of control”.
In the case of `CC(C)OC(=O)N[C@H]1Cc2c(n(Cc3ccccc3O)c3ccc(C#N)cc23)C1` [Example 9, [(S)-7-Cyano-4-(2-hydroxy-benzyl)-1,2,3,4-tetrahydro-cyclopenta[b]indol-2-yl]-carbamic acid isopropyl ester], the Ki in experiment [2] is about 0.8 nM. Further, the EC50 in experiment [1] is about 0.3 nM.

In general, Ki refers to the equilibrium dissociation constant of an inhibitor or competing ligand from its target. Higher therefore signals lower affinity.
